Test results as given in US9044428B2, “Neuritogenic peptides” (Neoloch ApS, priority 2005, dated 2015).
Peptide text beside a SMILES is read from it.

Tested on: Primary cultures of CGN
Assay: Survival of CGN induced to undergo apoptosis (low KCl) in vitro
Format: cell-based, rat
Details: apoptosis induced by reducing KCl to 5 mM, two days
Description: Primary cultures of CGN were plated at a density of 100 000 cells/cm^2 on poly-L-lysine coated 8-well permanox slides in Neurobasal-A medium (Gibco BRL) supplemented with 2% (v/v) B27, 0.5% (v/v) glutamax, 100 units/mL penicillin, 100 μg/mL streptomycin and KCl, making the final concentration of KCl in the medium 40 mm, Twenty-four hours after plating, Ara-C (Sigma-Aldrich) was added to a final concentration of 10 μm to avoid proliferation of glial cells, after which the neurons were allowed to differentiate for a further 6 days at 37° C. Apoptotic cell death was induced by washing twice and changing the medium to Basal Medium Eagle (BME; Gibco BRL) supplemented with 1% (v/v) glutamine, 100 U/mL, penicillin and 100 μg/mL streptomycin, 3.5 g d-glucose/L and 1% (v/v) sodium pyruvate (Gibco BRL) together with various concentrations of peptide. Thereby the concentration of potassium in the cultures was reduced to 5 mm KCl (D'Mello et al. 1993). Two days after induction of apoptosis, the cells were fixed with 4% (v/v) formaldehyde and stained with Hoechst 33258 as described for the survival assay employing hippocampal neurons.

With `CC(C)C[C@H](NC(=O)CNC(=O)[C@H](CO)NC(=O)[C@@H](NC(=O)[C@H](C)NC(=O)[C@H](CCCCN)NC(=O)[C@H](CC(=O)O)NC(=O)[C@@H](NC(=O)[C@H](Cc1c[nH]cn1)NC(=O)[C@H](CC(C)C)NC(=O)[C@@H](N)CCC(N)=O)C(C)C)C(C)C)C(=O)N[C@@H](CCCNC(=N)N)C(=O)N[C@@H](CO)C(=O)N[C@@H](CC(C)C)C(=O)N[C@H](C(=O)N[C@H](C(=O)N[C@@H](CC(C)C)C(=O)N[C@@H](CC(C)C)C(=O)N[C@@H](CCCNC(=N)N)C(=O)N[C@@H](C)C(=O)O)[C@@H](C)O)[C@@H](C)O` [Epo3] (H-QLHVDKAVSGLRSLTTLLRA-OH) the “protection of CGN induced to undergo apoptosis (neuronal survival)” value was “strongest neuroprotective effect”.
